Data from US11654135B2, “Methods for treating colon cancer with compositions comprising amlexanox and immune checkpoint inhibitors” (MOONSHOT PHARMA LLC, priority 2017, dated 2023).

Tested on: MC38 tumor cells
Assay: Example 2: MC38 subcutaneous tumor model with amlexanox and checkpoint inhibitors, tumor volume by caliper
Type: in vivo, C57BL/6 mice
Settings: for Mean tumor volume: MC38 s.c., C57BL/6, i.p.: NMDI14 5, PTC124 20, amlexanox 20 (with antibodies) or 10 (alone) mg/kg QD, antibodies 10 mg/kg BIW, 3 weeks; for Mean % Inhibition, Tumor Volume MC38: (mean(C) − mean(T))/mean(C) * 100%, negative values indicate an increase in tumor volume
Description: Animals and cell cultures were maintained as described in Example 1. C57BL/6 mice were inoculated subcutaneously at the right lower flank region with MC38 tumor cells (1×10^6) in 0.1 mL of PBS for tumor development. The treatments were started when the mean tumor size reaches approximately 50 mm^3. The date of tumor cell inoculation was denoted as day 0. All the compounds were administered i.p.
After tumor cell inoculation, the animals were checked daily for morbidity and mortality as well as any effects of tumor growth and treatments on normal behavior such as mobility, visual estimation of food and water consumption, body weight gain/loss, eye/hair matting and any other abnormal effect. Tumor volumes were measured twice weekly at least in two dimensions using a caliper, and the volume expressed in mm3 using the formula: V=0.5 a×b2 where a and b are the long and short diameters of the tumor, respectively. Mean tumor volume for each treatment group over the course of the study is shown in Table 9, and the percent inhibition of tumor volume is shown in Table 10.

For `CC(C)c1ccc2oc3nc(N)c(C(=O)O)cc3c(=O)c2c1` [amlexanox, 2-amino-7-isopropyl-5-oxo-5H-chromeno[2,3-b]pyridine-3-carboxylic acid], the Mean tumor volume (Day 7) was 17.22 mm3, the Mean tumor volume (Day 11) was 145.47 mm3 and the Mean tumor volume (Day 14) was 286.64 mm3. The Mean tumor volume (Day 18) was 982.03 mm3, the Mean tumor volume (Day 21) was 1830.00 mm3 and the Mean tumor volume (Day 25) was 2816.94 mm3. The Mean tumor volume (Day 26 (so in the source)) was 3301.20 mm3, the “Mean % Inhibition, Tumor Volume MC38” value (Study day 7 (Mar. 17, 2017)) was −45.19% and the “Mean % Inhibition, Tumor Volume MC38” value (Study day 11 (Mar. 21, 2017)) was −29.51%. The “Mean % Inhibition, Tumor Volume MC38” value (Study day 14 (Mar. 24, 2017)) was −39.15%, the “Mean % Inhibition, Tumor Volume MC38” value (Study day 18 (Mar. 28, 2017)) was −44.97% and the “Mean % Inhibition, Tumor Volume MC38” value (Study day 21 (Mar. 31, 2017)) was −63.00%. The “Mean % Inhibition, Tumor Volume MC38” value (Study day 25 (Apr. 4, 2017)) was −42.11% and the “Mean % Inhibition, Tumor Volume MC38” value (Study day 28 (Apr. 7, 2017)) was −104.74%.
